Measured values taken from patent publication US9447063B2, “Disubstituted adamantyl derivative or pharmaceutically acceptable salt thereof, production method for same, and pharmaceutical composition for suppressing cancer metastasis comprising same as active ingredient” (KOREA RESEARCH INSTITUTE OF BIOSCIENCE AND BIOTECHNOLOGY, priority 2012, dated 2016).

Columns and labels:
[1] = system: human colorectal carcinoma cell line HCT116; test: In vivo inhibition of cancer cell proliferation in the mouse by intraperitoneal administration (HCT116 transplant); design: species or system Balb/c nude mice; conditions: 30 mg/kg intraperitoneal; for Weight changes over the administration time: nude mice
Protocol: First, female Balb/c nude mice (6 weeks old) were administered with the compound prepared in Example 2 via intraperitoneal injection. […] One week later, any change in the tumor size was observed by comparing the volume of the first formed tumor and the volume measured one week after. On the last day, the tumor was weighed. […] All the values of each measurement title were examined by t-test to investigate the statistical significance of the values obtained from the non-treated group, the group treated with the compound of Example 2, and the positive control group.

B16F10 melanoma cells = test: Inhibition of metastasis in vivo in the test mouse (luciferase imaging); design: species or system C57BL/6 mice; conditions: for Weight changes over the administration time: C57BL/6 mice
Protocol: To evaluate the inhibition effect of the compound on metastasis, C57BL/6 mice were transplanted with B16F10 melanoma cells (2×10^6 cells/ml) expressing luciferase via intravenous injection (0.2 ml, 4×10^5 cells/mouse). One hour later, 50 μl of luciferin was administered to each mouse at the concentration of 15 mg/ml via intraperitoneal injection. Then, the compound prepared in Example 2 of the invention was intraperitoneally administered at the concentration of 50 mg/kg 13 times. […] The image of the mouse was photographed every day for 14 days with a live animal imaging system (PHOTON IMAGER, Biospace). On the last day of the experiment, the mouse was sacrificed by using CO2 gas. The lung was extracted from the mouse, and lung metastasis of the skin cancer cells was confirmed. To investigate toxicity, weight and other general symptoms were observed during the experimental period. At this time, all the values of each measurement title were examined by t-test for the statistical significance of the values obtained from the non-treated group, the group treated with the compound of Example 2, and the positive control group. The results are shown in Table 3, Table 4, FIG. 9, and FIG. 10.

Weight changes over the administration time (B16F10 melanoma cells; 0 day): 100.0 ± 0.0%
Weight changes over the administration time (B16F10 melanoma cells; 2 days): 100.9 ± 2.2%
Weight changes over the administration time (B16F10 melanoma cells; 4 days): 102.9 ± 2.0%
Weight changes over the administration time (B16F10 melanoma cells; 7 days): 103.0 ± 2.8%
Weight changes over the administration time (B16F10 melanoma cells; 9 days): 106.0 ± 3.1%
Weight changes over the administration time (B16F10 melanoma cells; 11 days): 105.4 ± 2.9%
Weight changes over the administration time (B16F10 melanoma cells; 14 days): 107.7 ± 3.3%
Compound: CCN(CC)CCNC(=O)c1c(C)[nH]c(/C=C2\C(=O)Nc3ccc(F)cc32)c1C [sunitinib]
Inhibition rate of tumor growth (tumor volume) ([1]; 0 day): (0%)
Tumor volume over the administration time (Vt − Vo) ([1]; 0 day): 0.0 ± 0.0
Weight changes over the administration time ([1]; 0 day): 100.0 ± 0.0%
Inhibition rate of tumor growth (tumor volume) ([1]; 2 days): (31.7%)
Weight changes over the administration time ([1]; 2 days): 100.5 ± 1.4%
Weight changes over the administration time ([1]; 4 days): 100.7 ± 2.0%
Tumor weight at final day ([1]; 7 days): 1064.9 ± 130.9 mg
Weight changes over the administration time ([1]; 7 days): 100.8 ± 3.3%
Image signals over the administration time (B16F10 melanoma cells; 0 day, live animal imaging): 857.2 ± 679.3 photons/s/sr
Image signals over the administration time (B16F10 melanoma cells; 4 days, live animal imaging, Example 2 50 mg/kg, sunitinib 30 mg/kg): 222.0 ± 146.1 photons/s/sr
Inhibition rate of tumor metastasis (image signals) (B16F10 melanoma cells; 9 days, live animal imaging): (19.9%)
Image signals over the administration time (B16F10 melanoma cells; 9 days, live animal imaging, Example 2 50 mg/kg, sunitinib 30 mg/kg): 47.5 ± 10.7 photons/s/sr
Image signal at final day (B16F10 melanoma cells; 14 days, extracted lung imaging, Example 2 50 mg/kg, sunitinib 30 mg/kg): 21738.7 ± 14939.0
Image signals over the administration time (B16F10 melanoma cells; 14 days, live animal imaging, Example 2 50 mg/kg, sunitinib 30 mg/kg): 13084.0 ± 8931.2 photons/s/sr
